# Laboratory results published in US20120122924A1, “NAMPT INHIBITORS” (ABBOTT LABORATORIES, priority 2010, published 2012).
# Biological target: recombinant, human, C-terminally-His tagged NAMPT (Homo sapiens, UniProt P43490)
# Assay: Time-Resolved Fluorescence Resonance Energy Transfer (TR-FRET) binding assay of NAMPT
# Details: 6.8 nM NAMPT, 200 nM probe (Oregon Green 488-conjugated APO866), 1 nM Tb-anti-His antibody, 2-3 hours
# Procedure: Determination of the utility of compounds having Formula (I) as binders to and inhibitors of NAMPT was performed using a Time-Resolved Fluorescence Resonance Energy Transfer (TR-FRET) binding assay.
# Time-Resolved Fluorescence Resonance Energy Transfer (TR-FRET) Binding Assay of NAMPT
# The assay was carried out in 18 uL low volume plates (Owens Corning) in reaction buffer (50 mM HEPES (NaOH), pH 7.5, 100 mM NaCl, 10 mM MgCl2, 1 mM DTT, 1% Glycerol) using 6.8 nM recombinant, human, C-terminally-His tagged NAMPT, 1 nM Tb-anti-His antibody (Invitrogen, Cat # PV5895), and 200 nM probe (Oregon Green 488-conjugated APO866; A-1251667.0). Plates were covered, and reactions were carried out for 2-3 hours. Plates were read with Envision (Laser Lantha low volume protocol) after 2 to 3 hours. Excitation was carried out at 337 nm, and the ratio of emission of Oregon Green (520 nm) to terbium (492 nm) was determined and used to calculate IC50 values of test compounds.
# Chain of recombinant, human, C-terminally-His tagged NAMPT (P43490 whole entry): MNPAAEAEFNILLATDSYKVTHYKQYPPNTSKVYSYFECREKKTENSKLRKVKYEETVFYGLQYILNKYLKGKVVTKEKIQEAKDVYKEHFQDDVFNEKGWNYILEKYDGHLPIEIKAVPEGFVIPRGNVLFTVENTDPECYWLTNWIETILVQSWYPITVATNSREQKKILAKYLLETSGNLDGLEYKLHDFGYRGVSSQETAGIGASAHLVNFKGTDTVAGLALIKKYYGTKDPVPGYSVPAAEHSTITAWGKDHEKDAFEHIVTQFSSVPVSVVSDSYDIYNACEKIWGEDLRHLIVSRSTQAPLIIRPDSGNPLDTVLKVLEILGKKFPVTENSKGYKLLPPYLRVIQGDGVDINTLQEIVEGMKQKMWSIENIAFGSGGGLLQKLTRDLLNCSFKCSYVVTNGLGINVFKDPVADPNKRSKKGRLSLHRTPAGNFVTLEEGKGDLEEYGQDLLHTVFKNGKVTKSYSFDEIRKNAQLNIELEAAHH
row,SMILES,IC50 [nM]
1,"CC(C)Cn1cc(-c2ccc(NC(=O)N3CCc4ccccc4C3)cc2)cn1 [Example 34, N-[4-(1-isobutyl-1H-pyrazol-4-yl)phenyl]-3,4-dihydroisoquinoline-2(1H)-carboxamide]",38.8
2,"CCCn1cc(-c2ccc(NC(=O)N3CCc4ccccc4C3)cc2)cn1 [Example 35, N-[4-(1-propyl-1H-pyrazol-4-yl)phenyl]-3,4-dihydroisoquinoline-2(1H)-carboxamide]",103
3,"C[C@@H](O)Cn1cc(-c2ccc(NC(=O)N3CCc4ccccc4C3)cc2)cn1 [Example 36, N-{4-[1-((2R)-2-hydroxypropyl)-1H-pyrazol-4-yl]phenyl}-3,4-dihydroisoquinoline-2(1H)-carboxamide]",185
4,"CC(C)CCn1cc(-c2ccc(NC(=O)N3CCc4ccccc4C3)cc2)cn1 [Example 37, N-{4-[1-(3-methylbutyl)-1H-pyrazol-4-yl]phenyl}-3,4-dihydroisoquinoline-2(1H)-carboxamide]",298
5,"O=C(Nc1ccc(-c2cnn(Cc3ccccc3)c2)cc1)N1CCc2ccccc2C1 [Example 38, N-[4-(1-benzyl-1H-pyrazol-4-yl)phenyl]-3,4-dihydroisoquinoline-2(1H)-carboxamide]",391
6,"O=C(Nc1ccc(/C=C/CCCc2ccccc2)cc1)N1CCc2ccccc2C1 [Example 39, N-{4-[(1E)-5-phenylpent-1-en-1-yl]phenyl}-3,4-dihydroisoquinoline-2(1H)-carboxamide]",611
7,"CCn1cc(-c2ccc(NC(=O)N3CCc4ccccc4C3)cc2)cn1 [Example 40, N-[4-(1-ethyl-1H-pyrazol-4-yl)phenyl]-3,4-dihydroisoquinoline-2(1H)-carboxamide]",645
8,"O=C(Nc1ccc(-c2cnn(CCO)c2)cc1)N1CCc2ccccc2C1 [Example 41, N-{4-[1-(2-hydroxyethyl)-1H-pyrazol-4-yl]phenyl}-3,4-dihydroisoquinoline-2(1H)-carboxamide]",819
9,"Cn1cc(-c2ccc(NC(=O)N3CCc4ccccc4C3)cc2)cn1 [Example 42, N-[4-(1-methyl-1H-pyrazol-4-yl)phenyl]-3,4-dihydroisoquinoline-2(1H)-carboxamide]",1290
10,"O=C(Nc1ccc(C2=CCN(C(=O)c3ccccc3)CC2)cc1)N1CCc2ccccc2C1 [Example 43, N-[4-(1-benzoyl-1,2,3,6-tetrahydropyridin-4-yl)phenyl]-3,4-dihydroisoquinoline-2(1H)-carboxamide]",10.1
11,"CCCC(=O)N1CC=C(c2ccc(NC(=O)N3CCc4ccccc4C3)cc2)CC1 [Example 44, N-[4-(1-butyryl-1,2,3,6-tetrahydropyridin-4-yl)phenyl]-3,4-dihydroisoquinoline-2(1H)-carboxamide]",13.6
12,"CC(C)S(=O)(=O)N1CC=C(c2ccc(NC(=O)N3CCc4ccccc4C3)cc2)CC1 [Example 45, N-{4-[1-(isopropylsulfonyl)-1,2,3,6-tetrahydropyridin-4-yl]phenyl}-3,4-dihydroisoquinoline-2(1H)-carboxamide]",13.8
13,"CC(C)C(=O)N1CC=C(c2ccc(NC(=O)N3CCc4ccccc4C3)cc2)CC1 [Example 46, N-[4-(1-isobutyryl-1,2,3,6-tetrahydropyridin-4-yl)phenyl]-3,4-dihydroisoquinoline-2(1H)-carboxamide]",15.3
14,"CC(C)CC(=O)N1CC=C(c2ccc(NC(=O)N3CCc4ccccc4C3)cc2)CC1 [Example 47, N-{4-[1-(3-methylbutanoyl)-1,2,3,6-tetrahydropyridin-4-yl]phenyl}-3,4-dihydroisoquinoline-2(1H)-carboxamide]",20.2
15,"CNC(=O)N1CC=C(c2ccc(NC(=O)N3CCc4ccccc4C3)cc2)CC1 [Example 48, N-{4-[1-(methylcarbamoyl)-1,2,3,6-tetrahydropyridin-4-yl]phenyl}-3,4-dihydroisoquinoline-2(1H)-carboxamide]",32.6
16,"CC(C)(C)OC(=O)N1CC=C(c2ccc(NC(=O)N3CCc4ccccc4C3)cc2)CC1 [Example 49, tert-butyl 4-{4-[(3,4-dihydroisoquinolin-2(1H)-ylcarbonyl)amino]phenyl}-3,6-dihydropyridine-1(2H)-carboxylate]",48.7
17,"CC(=O)N1CC=C(c2ccc(NC(=O)N3CCc4ccccc4C3)cc2)CC1 [Example 50, N-[4-(1-acetyl-1,2,3,6-tetrahydropyridin-4-yl)phenyl]-3,4-dihydroisoquinoline-2(1H)-carboxamide]",58.6
18,"CC(C)CS(=O)(=O)N1CC=C(c2ccc(NC(=O)N3CCc4ccccc4C3)cc2)CC1 [Example 51, N-{4-[1-(isobutylsulfonyl)-1,2,3,6-tetrahydropyridin-4-yl]phenyl}-3,4-dihydroisoquinoline-2(1H)-carboxamide]",74.9
19,"O=C(Nc1ccc(C2=CCN(Cc3ccccc3)CC2)cc1)N1CCc2ccccc2C1 [Example 52, N-[4-(1-benzyl-1,2,3,6-tetrahydropyridin-4-yl)phenyl]-3,4-dihydroisoquinoline-2(1H)-carboxamide]",80.5
20,"CS(=O)(=O)N1CC=C(c2ccc(NC(=O)N3CCc4ccccc4C3)cc2)CC1 [Example 53, N-{4-[1-(methylsulfonyl)-1,2,3,6-tetrahydropyridin-4-yl]phenyl}-3,4-dihydroisoquinoline-2(1H)-carboxamide]",112

# The remaining lines, values ahead:
row,IC50 [nM],SMILES
1,289,"O=C(Nc1ccc(C2=CCNCC2)cc1)N1CCc2ccccc2C1 [Example 54, N-[4-(1,2,3,6-tetrahydropyridin-4-yl)phenyl]-3,4-dihydroisoquinoline-2(1H)-carboxamide]"
2,435,"CC(C)CCN1CC=C(c2ccc(NC(=O)N3CCc4ccccc4C3)cc2)CC1 [Example 55, N-{4-[1-(3-methylbutyl)-1,2,3,6-tetrahydropyridin-4-yl]phenyl}-3,4-dihydroisoquinoline-2(1H)-carboxamide]"
3,189,"CCCc1nc(-c2ccc(NC(=O)N3CCc4ccccc4C3)cc2)no1 [Example 56, N-[4-(5-propyl-1,2,4-oxadiazol-3-yl)phenyl]-3,4-dihydroisoquinoline-2(1H)-carboxamide]"
4,887,"O=C(Nc1ccc(-c2noc(Cc3ccccc3)n2)cc1)N1CCc2ccccc2C1 [Example 57, N-[4-(5-benzyl-1,2,4-oxadiazol-3-yl)phenyl]-3,4-dihydroisoquinoline-2(1H)-carboxamide]"
5,1260,"CC(C)CCc1nc(-c2ccc(NC(=O)N3CCc4ccccc4C3)cc2)no1 [Example 58, N-{4-[5-(3-methylbutyl)-1,2,4-oxadiazol-3-yl]phenyl}-3,4-dihydroisoquinoline-2(1H)-carboxamide]"
6,864,"CCCCCCNC(=O)N1CCc2ccccc2C1 [Example 59, N-hexyl-3,4-dihydroisoquinoline-2(1H)-carboxamide]"
7,1370,"CCOC(=O)CCCCCNC(=O)N1CCc2ccccc2C1 [Example 60, ethyl 6-[(3,4-dihydroisoquinolin-2(1H)-ylcarbonyl)amino]hexanoate]"
8,1250,"O=C(Cc1ccccc1)NCCc1ccc(NC(=O)N2CCc3ccccc3C2)cc1 [Example 61, N-(4-{2-[(phenylacetyl)amino]ethyl}phenyl)-3,4-dihydroisoquinoline-2(1H)-carboxamide]"
9,1470,"CC(C)C(=O)NCCc1ccc(NC(=O)N2CCc3ccccc3C2)cc1 [Example 62, N-{4-[2-(isobutyrylamino)ethyl]phenyl}-3,4-dihydroisoquinoline-2(1H)-carboxamide]"
10,10.7,"O=C(COCc1ccccc1)Nc1ccc(NC(=O)N2CCc3ccccc3C2)cc1 [Example 63, N-(4-{[(benzyloxy)acetyl]amino}phenyl)-3,4-dihydroisoquinoline-2(1H)-carboxamide]"
11,55,"COC1CCC(C(=O)Nc2ccc(NC(=O)N3CCc4ccccc4C3)cc2)CC1 (stereo not shown) [Example 64, N-(4-{[(4-methoxycyclohexyl)carbonyl]amino}phenyl)-3,4-dihydroisoquinoline-2(1H)-carboxamide]"
12,116,"CC(=O)N1CCC(C(=O)Nc2ccc(NC(=O)N3CCc4ccccc4C3)cc2)CC1 [Example 65, N-(4-{[(1-acetylpiperidin-4-yl)carbonyl]amino}phenyl)-3,4-dihydroisoquinoline-2(1H)-carboxamide]"
13,15.3,"O=C(CCC(=O)c1cccs1)Nc1ccc(NC(=O)N2CCc3ccccc3C2)cc1 [Example 66, N-(4-{[4-oxo-4-(2-thienyl)butanoyl]amino}phenyl)-3,4-dihydroisoquinoline-2(1H)-carboxamide]"
14,16.7,"O=C(CCS(=O)(=O)c1ccccc1)Nc1ccc(NC(=O)N2CCc3ccccc3C2)cc1 [Example 67, N-(4-{[3-(phenylsulfonyl)propanoyl]amino}phenyl)-3,4-dihydroisoquinoline-2(1H)-carboxamide]"
15,109,"CCC(C)(C)C(=O)Nc1ccc(NC(=O)N2CCc3ccccc3C2)cc1 [Example 70, N-{4-[(2,2-dimethylbutanoyl)amino]phenyl}-3,4-dihydroisoquinoline-2(1H)-carboxamide]"
16,2.75,"CC(C)(C)CC(=O)Nc1ccc(NC(=O)N2CCc3ccccc3C2)cc1 [Example 71, N-{4-[(3,3-dimethylbutanoyl)amino]phenyl}-3,4-dihydroisoquinoline-2(1H)-carboxamide]"
17,16.8,"CCCCCCC(=O)Nc1ccc(NC(=O)N2CCc3ccccc3C2)cc1 [Example 72, N-[4-(heptanoylamino)phenyl]-3,4-dihydroisoquinoline-2(1H)-carboxamide]"
